The record followed here is patent publication US20050222158A1, “Method of treating migraine headaches using calcitonin gene related peptide mimetics” (priority 2004, published 2005).

As usually defined, the IC50 is the concentration at which inhibition is half-maximal. A low value points to greater potency.

The target of the assay is T1, human CGRP receptor (Homo sapiens, UniProt O60894+Q16602).
T1 construct: SK-N-MC cells that endogenously express the human CGRP receptor; endogenous in cells; host or cells: SK-N-MC cells (membrane homogenates)
Put plainly: [125I]-CGRP radioligand binding assay, SK-N-MC cell homogenates. The following applies: 40 pM [125I]-CGRP, room temperature. As to the method: Tissue culture. SK-N-MC cells were grown at 37° C. in 5% CO2 as a monolayer in medium consisting of MEM with Earle's salts and L-glutamine (Gibco) supplemented with 10% fetal bovine serum (Gibco). Radioligand binding assays. Cells were rinsed twice with phosphate-buffered saline (155 mM NaCl, 3.3 mM Na2HPO4, 1.1 mM KH2PO4, pH 7.4), and incubated for 5-10 min. at 4° C. in hypotonic lysis buffer consisting of 10 mM Tris (pH 7.4) and 5 mM EDTA. Cells were transferred from plates to polypropylene tubes (16×100 mm), homogenized and centrifuged at 32,000×g for 30 min. Pellets were resuspended in buffer consisting of 50 mM Tris (pH 7.4) and 1 mM EDTA, homogenized, and centrifuged again at 32,000×g for 30 min. Pellets were resuspended in 100 mM Tris-Cl pH 7.5, 10 mM MgCl2, 0.1% mammalian protease inhibitor cocktail (Sigma) and stored at −80° C. until needed. On the day of an experiment, homogenates were thawed and homogenized again. Binding of [^125I]-CGRP (NEN) was carried out in buffer containing 50 mM Tris-Cl pH 7.5, 5 mM MgCl2, 0.5% BSA. Homogenates (3.5 μg protein/well) were incubated with competitor compounds (solubilized in 100% DMSO at 100× their final assay concentrations) for one hour at room temperature. Then [^125I]-CGRP was added (40 pM final concentration) and the reaction incubated for one additional hour at room temperature. […]

T1 sequence (Q16602 23-461): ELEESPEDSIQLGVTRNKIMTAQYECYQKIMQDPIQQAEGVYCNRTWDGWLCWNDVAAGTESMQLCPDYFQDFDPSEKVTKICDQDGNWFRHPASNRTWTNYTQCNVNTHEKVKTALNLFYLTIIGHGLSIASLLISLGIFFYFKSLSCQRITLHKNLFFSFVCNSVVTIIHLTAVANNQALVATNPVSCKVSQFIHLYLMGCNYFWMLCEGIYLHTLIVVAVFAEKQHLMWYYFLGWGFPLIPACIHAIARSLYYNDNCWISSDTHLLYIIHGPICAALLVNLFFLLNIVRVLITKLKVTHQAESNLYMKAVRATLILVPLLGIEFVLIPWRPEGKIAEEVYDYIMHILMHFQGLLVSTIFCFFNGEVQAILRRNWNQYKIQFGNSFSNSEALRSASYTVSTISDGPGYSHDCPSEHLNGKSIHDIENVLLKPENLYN
T1 sequence (O60894 27-148): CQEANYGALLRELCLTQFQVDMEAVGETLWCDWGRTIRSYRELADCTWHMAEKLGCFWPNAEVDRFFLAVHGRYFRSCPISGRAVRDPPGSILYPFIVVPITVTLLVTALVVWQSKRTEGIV

`CC(=O)c1ccc(NC(=O)N2CCC(=O)N3[C@@H]2CN(CCc2cccc(F)c2)C(=O)[C@@H]3CC(=O)OC2[C@H]3C[C@@H]4C[C@@H](C[C@H]2C4)C3)cc1` (stereo partly drawn) [Compound 29, {1-(4-Acetyl-phenylcarbamoyl)-(6S,9aS)-8-[2-(3-fluoro-phenyl)-ethyl]-4,7-dioxo-octahydro-pyrazino[1,2a]pyrimidin-6-yl}-acetic acid adamantan-2-yl ester] had an IC50 of 5160 nM.
